According to patent publication US20100298377A1, “NOVEL SUBSTITUTED INDAZOLES, THE PREPARATION THEREOF AND USE OF SAME IN THERAPEUTICS” (SANOFI-AVENTIS, priority 2007, published 2010):

Key:
[1] = system: MIA PaCa-2 cells (human pancreatic carcinoma cells); experiment: Proliferation of MIA PaCa-2 cells, intracellular ATP, CellTiter-Glo test; type: cell-based; settings: 96 hours
Excerpt: (§1) b. Study of the Proliferation of Human Tumoral MIA PaCa-2, C-433, LnCaP and MCF7 Cells via Assay of the Intracellular ATP Using the Celltiter-Glo™ Test
(§2) The kit CellTiter-Glo™ for measuring cell viability via luminescence ([…]) is a homogeneous method for determining the number of viable cells in culture, based on quantification of the ATP present in the cells, and which indicates the presence of metabolically active cells.
(§3) The cell lines used in this test were the following: MIA PaCa-2 cells (human pancreatic carcinoma cells, ATCC, CRL-1420), C-433 cells (human Ewing sarcoma cells, DSMZ, ACC 268), LNCaP clone FGC cells (human prostate carcinoma cells, ATCC, CRL-1740), MCF7 cells (human breast carcinoma cells, ECACC, #86012803). The cells MIAPaCa-2 and LNCaP were cultured in D-MEM culture medium (Invitrogen Gibco, #419656-039) containing 10% foetal calf serum (FCS, Invitrogen Gibco, #10500-064) and 2 mM L-Glutamine (Invitrogen Gibco, #25030-024); the C-433 cells were cultured in MCCoy's 5A culture medium (Invitrogen Gibco, #26600-023)/RPMI 1640 (Invitrogen Gibco, #31870-025) (50/50) containing 10% FCS and 2 mM L-glutamine; the MCF7 cells were cultured in EMEM culture medium (EMEM, Biowhittaker, Lonza, #BE12-662F) containing 10% FCS and 2 mM L-Glutamine.
(§4) Evaluation of the Cell Viability via Luminescence Measurement: Celltiter-Glo™ Test
(§5) On day 1, the cells were inoculated at 1000 (C-433), 2500 (MCF7) and 10000 (LNCaP and MIA PaCa-2) cells per well in black-bottomed 96-well microplates (NUNC fluoronunc, Fisherbioblock 2311K) in 135 μl of whole culture medium and incubated at 37° C., 5% CO2, for 3 to 6 hours. The cells were then incubated with increasing concentrations of molecules diluted in dimethyl sulfoxide (DMSO, Sigma D2650). The molecules were added in a volume of 15 μl of a 10-fold concentrated solution in a final volume of 150 μl, the final percentage of DMSO being 0.1%. The cells were incubated at 37° C., 5% CO2, for 96 hours. After 4 days of treatment with the molecules, the CellTiter-Glo™ was performed by following the manufacturer's instructions (Kit Celltiter-Glo Luminescent, PROMEGA #G7571). Briefly, the cell plates were equilibrated for about 30 minutes at RT and 100 μl per well of Celltiter-Glo reagent were added. The cells were incubated for 1 hour at RT for lysis of the cells and stabilization of the signal. The intracellular ATP was quantified by measuring the luminescence in rlu units (relative luminescence units), 96 hours after initiation of the treatment, using a luminescence counter (Wallac). The tests were performed in six replicates.
(§6) i) the mean±s.e.m. of each series of well replicates was calculated;
(§7) ii) the maximum response is given by positive control wells containing untreated cells; this control was performed in 12 replicates;
(§8) iii) the minimum response is given by cell-free and untreated negative control wells; this control was performed in 6 replicates;
(§9) iv) using these maximum (100%) and minimum (0%) response values, respectively, the data were normalized to give a percentage relative to the maximum response;
(§10) The IC50 values were calculated by […] with the XLfit software (IDBS, UK) using formula 205.

[2] = system: LNCaP clone FGC cells (human prostate carcinoma cells); experiment: Proliferation of LNCaP cells, intracellular ATP, CellTiter-Glo test; type: cell-based; settings: Homo sapiens, LNCaP-Clone-FGC, 96 hours
Excerpt: as §1, §2, §3, §4, §5, §6, §7, §8, §9, §10

[3] = system: MCF7 cells (human breast carcinoma cells); experiment: Proliferation of MCF7 cells, intracellular ATP, CellTiter-Glo test; type: cell-based; settings: Homo sapiens, MCF7, 96 hours
Excerpt: as §1, §2, §3, §4, §5, §6, §7, §8, §9, §10

[4] = system: C-433 cells (human Ewing sarcoma cells); experiment: Proliferation of C-433 cells, intracellular ATP, CellTiter-Glo test; type: cell-based; settings: Homo sapiens, 96 hours
Excerpt: as §1, §2, §3, §4, §5, §6, §7, §8, §9, §10

[5] = target: T1, Human S6K1 (24-421) T412E protein (Homo sapiens, UniProt P23443, T412E); experiment: Determination of the IC50 for S6K1 (HTRF substrate phosphorylation test); type: biochemical; settings: S6K1 activated by PDK1, ATP 30 μM
T1 construct: Human S6K1 (24-421) T412E protein; made in house; host or cells: Sf21 insect cells
T1 sequence (P23443 24-421 T412E): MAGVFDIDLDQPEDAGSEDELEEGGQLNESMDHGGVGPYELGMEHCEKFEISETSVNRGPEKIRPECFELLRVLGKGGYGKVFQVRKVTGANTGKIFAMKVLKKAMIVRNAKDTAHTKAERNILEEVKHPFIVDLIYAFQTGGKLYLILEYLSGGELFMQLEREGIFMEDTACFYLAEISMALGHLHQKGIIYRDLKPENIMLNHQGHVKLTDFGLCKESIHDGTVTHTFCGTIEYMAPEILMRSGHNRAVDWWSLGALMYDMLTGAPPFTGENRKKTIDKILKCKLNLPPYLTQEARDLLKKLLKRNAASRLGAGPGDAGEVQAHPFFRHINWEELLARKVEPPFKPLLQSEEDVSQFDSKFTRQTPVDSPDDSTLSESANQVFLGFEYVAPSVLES
Method: Determination of the IC50 for S6K1
The inhibitory potential of the compounds for S6K1 is evaluated in an enzymatic test of phosphorylation of substrate in HTRF (Homogenous Time-Resolved Fluorescence) format. Human S6K1 (24-421) T412E protein is expressed in sf21 cells and purified by chromatography on a nickel chelate column. It is activated by PDK1.
The test comprises two steps, both performed at RT. The phosphorylation reaction takes place during the first step and the revelation step is performed during the second. […] The final concentrations of compounds thus obtained during the incubation period range from 10 μM to 0.17 nM and the concentration of enzyme is 2 nM. After incubation for 20 minutes, the reaction is stopped and the revelation initiated by addition of 30 μl of a mixture of streptavidin XL 665 Xlent, ref. 611SAXLB Cis bio international, and a europium cryptate-coupled anti-phospho-GSK3 antibody, ref. 64CUSKAZ Cis bio international, dissolved in the revelation buffer (HEPES/NaOH 166.7 mM, EDTA 221.7 mM, KF 667.7 mM, BSA 0.167%, pH 7.0). The reaction takes place in a black half-well plate ref. 3694 Costar.
A mixture of the reaction medium after each addition of reagent is obtained by agitation for a few minutes at 700-1000 rpm on a Heidolph Titramax 100 machine. The reading is taken on a TECAN Ultra Evolution machine after at least one night and up to 3 nights at 4° C. The reading settings are as follows: excitation wavelength 320 nm, emission wavelengths 620 and 665 nm, lag time 150 μs, integration time 500 μs.
For each point, the ΔF % is calculated as follows:
R(Ratio)=counts665 nm/counts620 nm
The IC50 values are calculated by means of the XLfit4 205 equation.

Structure (SMILES) | IC50 [1] | IC50 [2] | IC50 [3] | IC50 [4] | IC50 [5] | melting point
O=C(Nc1ccc2[nH]ncc2c1)N[C@@H](c1cc(F)cc(Cl)c1)[C@@H]1CCCCN1 [Ex 3, 1-{(S)-(3-Chloro-5-fluorophenyl)[(2S)-piperid-2-yl]methyl}-3-(1H-indazol-5-yl)urea] | 10000 nM | 280 nM | 1100 nM | 630 nM | 100 to 500 nM | –
O=C(Nc1ccc2[nH]ncc2c1)N[C@@H](c1ccc(Cl)c(Cl)c1)[C@@H]1CCCCN1 [Ex 4, 1-{(S)-(3,4-Dichlorophenyl)[(2S)-piperid-2-yl]methyl}-3-(1H-indazol-5-yl)urea] | 3420 nM | 1200 nM | 2700 nM | 680 nM | 100 to 500 nM | 216 °C
O=C(Nc1ccc2[nH]ncc2c1)NC(c1cc(F)cc(Cl)c1)C1CCCCN1 (stereo not shown) [Ex 5, 1-[(3-Chloro-5-fluorophenyl)(piperid-2-yl)methyl]-3-(1H-indazol-5-yl)urea] | 7100 nM | – | 1420 nM | – | 100 to 500 nM | 185 °C
CN1CCCCC1C(NC(=O)Nc1ccc2[nH]ncc2c1)c1cc(F)cc(Cl)c1 (stereo not shown) [Ex 11, 1-[(3-Chloro-5-fluorophenyl)(1-methylpiperid-2-yl)methyl]-3-(1H-indazol-5-yl)urea] | > 10000 nM | – | – | – | 500 to 2000 nM | –
CN1CCCCC1C(NC(=O)Nc1ccc2[nH]nc(-c3ccncc3)c2c1)c1ccccc1 [Ex 13, 1-[(1-Methylpiperid-2-yl)(phenyl)methyl]-3-(3-pyrid-4-yl-1H-indazol-5-yl)urea((S,2S),(R,2R))] | 1450 nM | – | – | – | 500 to 2000 nM | –
Cc1n[nH]c2ccc(NC(=O)NC(c3ccccc3)C3CCCCN3C)cc12 [Ex 18, 3-Methyl-5-({[(1-methylpiperid-2-yl)(phenyl)methyl]carbamoyl}amino)-1H-indazole ((S,2S),(R,2R))] | 6100 nM | 1050 nM | 5800 nM | – | 500 to 2000 nM | –
CN1CCCCC1C(NC(=O)Nc1cc(F)c2[nH]ncc2c1)c1ccccc1 [Ex 21, 1-(7-Fluoro-1H-indazol-5-yl)-3-[(1-methylpiperid-2-yl)(phenyl)methyl]urea((S,2S),(R,2R))] | – | 861 nM | – | – | 500 to 2000 nM | –
CN1CCCCC1C(NC(=O)Nc1ccc2[nH]nc(C#Cc3ccc(F)cc3)c2c1)c1ccccc1 [Ex 24, 1-{3-[(4-Fluorophenyl)ethynyl]-1H-indazol-5-yl}-3-[(1-methylpiperid-2-yl)(phenyl)methyl]urea((S,2S),(R,2R))] | 1300 nM | – | – | – | 100 to 500 nM | –
CN1CCCCC1C(NC(=O)Nc1ccc2[nH]nc(C#Cc3cccnc3)c2c1)c1ccccc1 [Ex 25, 1-[(1-Methylpiperid-2-yl)(phenyl)methyl]-3-[3-(pyrid-3-ylethynyl)-1H-indazol-5-yl]urea((S,2S),(R,2R))] | – | 611 nM | 1290 nM | 288 nM | 100 to 500 nM | –

Other lines, results leading:

IC50 [1] | IC50 [2] | IC50 [3] | IC50 [4] | IC50 [5] | melting point | Structure (SMILES)
6250 nM | 2940 nM | 4450 nM | – | 100 to 500 nM | – | S=C(Nc1ccc2[nH]ncc2c1)N[C@@H](c1ccc(Cl)c(Cl)c1)[C@@H]1CCCCN1 [Ex 31, 1-{(S)-(3,4-Dichlorophenyl)[(2S)-piperid-2-yl]methyl}-3-(1H-indazol-5-yl)thiourea]
2910 nM | – | – | – | 500 to 2000 nM | – | O=C(Nc1ccc2[nH]ncc2c1)OC(c1cc(Cl)cc(Cl)c1)C1CCCCN1 [Ex 34, (3,5-Dichlorophenyl)[piperid-2-yl]methyl 1H-indazol-5-ylcarbamate((S,2S),(R,2R))]
3100 nM | 319 nM | 1050 nM | – | 100 to 500 nM | – | O=C(Nc1ccc2[nH]ncc2c1)O[C@@H](c1cc(F)cc(Cl)c1)[C@@H]1CCCCN1 [Ex 35, (S)-(3-Chloro-5-fluorophenyl)[(2S)-piperid-2-yl]methyl 1H-indazol-5-ylcarbamate]
10000 nM | 2230 nM | – | – | 500 to 2000 nM | – | CN1CCCCC1C(OC(=O)Nc1ccc2[nH]ncc2c1)c1cc(F)cc(Cl)c1 (stereo not shown) [Ex 36, (3-Chloro-5-fluorophenyl)(1-methylpiperid-2-yl)methyl 1H-indazol-5-ylcarbamate]
2450 nM | 2370 nM | – | – | 100 to 500 nM | – | O=C(Nc1ccc2[nH]ncc2c1)O[C@H](c1ccc(Cl)c(Cl)c1)[C@H]1CCCCN1 [Ex 37, (R)-(3,4-Dichlorophenyl)[(2R)-piperid-2-yl]methyl 1H-indazol-5-ylcarbamate]
– | 1710 nM | 2400 nM | 1790 nM | 100 to 500 nM | – | O=C(Nc1ccc2[nH]ncc2c1)O[C@@H](c1ccc(Cl)c(Cl)c1)[C@@H]1CCCCN1 [Ex 38b, (S)-(3,4-Dichlorophenyl)[(2S)-piperid-2-yl]methyl 1H-indazol-5-ylcarbamate]
– | 600 nM | 1300 nM | 500 nM | 100 to 500 nM | – | O=C(Nc1ccc2[nH]ncc2c1)O[C@@H](c1cccc(Br)c1)[C@@H]1CCCCN1 [Ex 46]
